From patent US20120195929A1, “COMPOUNDS THAT MODULATE AUTOIMMUNITY AND METHODS OF USING THE SAME” (priority 2009, published 2012) come the findings set out here.

“Also recorded” adds a separate entry of the source.

Experiment [1] concerns NOD mice. Description: Diabetes prevention study in NOD mice. To be noted: 80 mg/kg/day i.p. 5 days per week from 4 to 21 weeks of age; p<0.001 vs PBS controls.
The test system of experiment [2] is Balb/c splenocytes. Description: IL-10 ELISPOT, Balb/c splenocytes (I-A^d). Type of experiment: cell-based, Balb/c mice. From the text:
(§1) Balb/c mice have I-A^d as their class II antigen presenting molecule. I-A^d is structurally similar to I-A^g7 of the NOD, with both strains having identical I-A alpha chains (17 amino acid differences in the I-A beta chains). C57BL/6 mice have I-A^b as their class II antigen presenting molecule. Both strains lack the basic pocket 9 in the peptide binding groove.

The subject of experiment [3] is NOD splenocytes. Nature of the experiment: IL-10 ELISPOT, in vitro culture of NOD splenocytes. The conditions noted are these: stimulated with glyphosine and B:9-23 peptide.
For experiment [4], the system named is NOD mice splenocytes. Nature of the experiment: Ex vivo ELISPOT of splenocytes from NOD mice treated in vivo. To be noted: 80 mg/kg/day intraperitoneal for 5 days, 10 week old female NOD mice; vs PBS.
In experiment [5] the test system is I-A^g7 congenic splenocytes. Description: IL-10 ELISPOT, splenocytes from C57BL/6 mice congenic for I-A^g7. Type of experiment: cell-based. To be noted: C57BL/6 congenic for I-A^g7.
Description: as §1

Experiment [6] concerns C57BL/6 splenocytes. Description: IL-10 ELISPOT, C57BL/6 splenocytes (I-A^b). The conditions noted are these: C57BL/6, I-A^b. Type of experiment: cell-based, C57BL/6 mice.
Description: as §1

In experiment [7] the test system is I-A^g7. Nature of the experiment: Direct binding of biotinylated insulin B:9-23 peptide to purified I-A^g7. Also on record: species or system mouse. The conditions noted are these: 500 nM; increasing biotinylated B:9-23; 2 h and 24 h.
Experiment [8] concerns T cell hybridoma 8-1.1α1. Description: T cell hybridoma 8-1.1α1 response to B:9-23 peptide presented by I-A^g7. The experiment is classed as cell-based, mouse. From the text:
B:9-23 peptide and small molecule binding to panel a) T cell hybridoma 8-1.1α1, panel b) hybridoma BDC 12-4.1, and panel c) hybridoma BDC 12-4.4. […] Dotted line is at the stimulation index of the B:9-23 peptide. TT=tetanus toxin (negative control peptide).
TT=tetanus toxin (negative control peptide). B:19(A)=substitution of the native cysteine for alanine at position 19 in B:9-23. […] Results are given as a stimulation index (SI) from triplicate cultures+s.e.m. The data are representative of at least three independent experiments. […] The figure is representative of three independent experiments.
The top 40 scoring compounds (shown in Table 1) were screened for their ability to alter anti-B:9-23 T cell responses to three different T cell hybridomas, all with the dominant conserved Vα5D-4 TCR element but different CDR3α, Jα, and TCRβ chains. […] The same assays evaluating hybridoma response were performed using 40 random compounds from the NCI/DTP repository.

Experiment [9] concerns BDC 12-4.1 splenocytes. Description: ELISPOT and supernatant cytokines, transgenic BDC 12-4.1 Rag−/− mouse splenocytes. The experiment is classed as cell-based. The protocol: Number of spots for each well is shown in the upper left hand corner.
The in vitro response of a monoclonal T cell population targeted to the B:9-23 peptide (rather than hybridomas) was evaluated by enzyme-linked immunospot (ELISPOT). […] Stimulation without the addition of B:9-23 peptide was unexpected and could be due to in vivo insulin peptide-MHC complexes present in the spleen. As shown in panel d of FIG. 3, both IL-10 (FIG. 3c) and IFN-γ (FIG. 3d) were quantified in the supernatant of stimulated splenocytes.

Experiment [10] relates to BDC 2.5 T cell hybridoma. Description: BDC 2.5 T cell hybridoma response to chromogranin peptide mimotope presented by I-A^g7. The experiment is classed as cell-based, mouse. To be noted: chromogranin peptide mimotope presented by I-A^g7 (FIG. 2d).

Regarding `O=C(O)CN(CP(=O)(O)O)CP(=O)(O)O` [Glyphosine, N,N-bis(phosphonomethyl)glycine], the development of diabetes result in experiment [1] is recorded as “Prevention of diabetes occurred as long as therapy was administered”. Besides, the “IL-10 ELISPOT response to compound plus B:9-23 peptide” value in experiment [2] is on record as “failed to respond”; in experiment [5], “responded”; in experiment [6] it was “failed to respond”. The “IL-10 producing cells (ELISPOT)” value in experiment [3] is “three- to four-fold increase”. For the same molecule, in [4], the “ex vivo IFN-γ ELISPOT” value is on record as “no change in IFN-γ”. Further, in [4], the “ex vivo IL-10 ELISPOT” value is “upregulation of IL-10”. For the same molecule, in [7], the “B:9-23 peptide binding to empty I-A^g7” value is on record as “directly enhance B:9-23 peptide binding”. For the same molecule, the “TCR stimulation with other modified B:9-23 insulin peptides” value in [8] (FIG. 2c) is on record as “enhanced TCR stimulation”. In addition, in experiment [8] (Mus musculus, T-cell, with B:9-23 peptide (FIG. 2b), read-out: EC50 concentration, enhancement of TCR stimulation), the EC50 was 70.6 nM. The “maximal stimulatory effect, fold greater than peptide alone” value in experiment [8] (at 500 nM) is listed as “approximately 2.5 fold”. Besides, the “concentration of maximal stimulatory effect” value in [8] (with B:9-23 peptide) is 500 nM. Further, the “lowest concentration at which an effect was seen” value in [8] (with B:9-23 peptide (FIG. 2b)) is reported as 10 nM. Besides, the “TCR stimulation, dependence on peptide” value in experiment [8] (with vs without B:9-23 peptide (FIG. 2b)) was “modulated TCR stimulation only when peptide is present”. For the same molecule, the “IFN-γ positive cells (ELISPOT)” value in experiment [9] (in vitro, 500 nM) is recorded as “much smaller increase in IFN-γ positive cells”. In [9] (in vitro, 500 nM, with and without B:9-23 peptide), the “IL-10 positive cells (ELISPOT)” value is listed as “dramatically enhances IL-10 positive cells”. In addition, in [9] (with B:9-23 peptide, compared to peptide alone), the “IFN-γ levels in supernatant” value is listed as “not increased; also recorded: decreases IFN-γ levels”. Besides, the “peptide stimulation of BDC 2.5 hybridoma” value in experiment [10] is recorded as “did not enhance peptide stimulation”.
